Consider four compounds from publication PMC5117135 (ACS Chemical Biology, 2016).

Series [1] concerns HHQ and PQS quinolone production in P. aeruginosa strain PA14. In words: Inhibition of HHQ and PQS quinolone production, LC-MS/MS quantitation. It is filed as cell-based, Pseudomonas aeruginosa. The following applies: dose and time course over 24 h.
A further series concerns P. aeruginosa PA14. In words: Compound accumulation, LC-MS/MS quantitation of lysate. The following applies: 1000 μM extracellular, 30 min. It is filed as cell-based, Pseudomonas aeruginosa.
A further series concerns MvfR. The following applies: binding to and activation of MvfR; cited from earlier work.
Another series concerns PqsA. The following applies: read-out: Km as PqsA substrate; cited from earlier work.

As for `Nc1cccc(F)c1C(=O)O` [6FABA, 6-Fluoroanthranilate], the “lowest concentration that inhibited or delayed quinolone production” value in series [1] was 100 µM. In addition, in the series on P. aeruginosa PA14, the “penetration relative to the extracellular concentration applied” value is 2–3%. In addition, in the series on P. aeruginosa PA14 (PA14 in LB, OD600 ≈ 0.5, calculated based on CFU), the intracellular concentration is 20 to 30 µM. For the compound `CCCCCCCc1nc2ccccc2c(O)c1O` [PQS, 3,4-dihydroxy-2-heptylquinoline], the “potency on MvfR relative to HHQ” value with MvfR is listed as 100 fold. Take `Nc1ccccc1C(=O)O` [anthranilate]: in the series on PqsA, the Km (as a rule, the concentration of substrate that gives half-maximal velocity) was 8 µM. As to `O=C(O)c1ccccc1` [benzoate], in the series on PqsA, the Km was 150 µM.
